Where two headings read alike, the source gives them in different places.
Assays:
rat ventricular myocytes = assay: Contractile function of individual ventricular myocytes (line scan camera edge detection, paced at 0.5 Hz); type: cell-based; details: for inhibition at 0.2 µM / activation at 0.2 µM: ISO at 0.2 μM; for +dL/dtmax, maximal rate of shortening / -dL/dtmax, maximal rate of relaxation / DS, duration of shortening / LC, maximum length change (shortening) with contraction / TPS, time-to-peak shortening / TR, time to 75% relaxation: mean ± SE
Description: Primary cultures of adult rat ventricular myocytes were prepared essentially according to previously described methods (Romano et al., Am. J. Physiol. 257:H1088 (1989)). Two male Sprague-Dawley rats (Charles River, Wilmington, Mass. or Harlan, Indianapolis, Ind.) were decapitated, and the hearts were rapidly excised and constant pressure (70 cm H2) and nonrecirculated) perfused for 10 minutes through the aortas with filtered (0.45 μm membrane filter) perfusing solution (NaCl, 118 mM; glucose, 10 mM; NaHCO3 25 mM; KCl, 4.69 mM; MgSO4 1.18 mM; and KH2 PO4, 1.18 mM; (pH 7.4)), to which […] was added, at 37° C. After equilibration, the hearts were constant pressure perfused with fresh physiological saline ("PS") containing no added Ca^2+ until spontaneous contractions ceased (i.e., ~30 seconds). The hearts were then perfused for 4-10 minutes in a nonrecirculating manner with PS containing 0.73 mg/ml collagenase, 0.16 mg/ml hyaluronidase, 1 mg/ml recrystallized bovine serum albumin ("BSA") and 48.4 μM Ca^2+ at a rate of 3-4 ml/min/heart. Ventricles, free of atria, were removed from the perfusion system, cut into 8 pieces and placed in a 50 ml Erlenmeyer flask with 5 ml of PS containing 0.73 mg/ml collagenase, 0.16 mg/ml hyaluronidase, 2.5 mg/ml BSA, and 50 μM Ca^2+ (incubation solution). The flask was gently shaken (40 cycles/min) in a reciprocating water bath with continuous gassing (95% O2, 5% CO2) for 7 minutes at 37° C. The incubation solution was aspirated and this shaking procedure was repeated with fresh incubation solution 3-5 times depending on the likelihood that the tissue was ready to dissociate. After the final incubation period, the solution was aspirated and replaced with 10 ml of fresh incubation solution. The flask was then shaken rapidly (120 cycles/min) for 10 minutes with gassing to dissociate the myocytes. The flask contents were filtered through a 250 μm nylon mesh into a 50 ml polypropylene centrifuge tube, to which 40 ml of PS containing 5.95 mg/ml BSA and 99.7 μm Ca^2+ (wash solution) was gradually added.
The myocytes were allowed to settle for 15 minutes, and the upper two thirds of the wash solution was aspirated. Upon the addition of 30-35 ml of wash solution, this settling step was repeated. The wash solution was aspirated and the myocyte pellet was resuspended in 10 ml of minimum essential medium ("MEM"). The myocyte suspension was allowed to settle for 5 minutes and then brought to a final volume of 22 ml with MEM. Two milliliters of the myocyte suspension was seeded onto each of 60 mm culture dishes containing 2 ml of MEM.
The contractile function of individual myocytes was assessed by dispersing 50-100 cells in a 506 μl myocyte chamber (11×23×2 mm deep). The chamber (FIG. 1) was continuously suffused (850 μl/min) with fresh suffusion solution ("SS") in mM: 136.4 NaCl, 4.7 KCl, 1.0 CaCl2, 10 hydroxyethylpiperzine-ethanesulfonicacid (HEPES), 1.0 NaHCO3, 1.2 MgSO4, 1.2 KH2 PO4, 10 glucose, 0.6 ascorbate, 1.0 pyruvate) at 20° C. The chamber was mounted on an inverted microscope stage and contained platinum wire electrodes for initiating myocyte contraction at 0.5 Hz (voltage 10% above threshold for 5 msec duration).
The image of the myocyte was projected via an inverted microscope at 300× onto a line scan camera (Fairchild, Model 1600R) containing a linear array (1×3456) of photodiodes. When aligned with the longitudinal axis of the cell the camera detected the movement of the 2 ends of the myocyte upon contraction (shortening and relengthening). […] When the myocyte was transilluminated, both ends of the cell were easily discriminated. Myocyte length and length change with respect to time for a single contraction was measured by determining the pixels in which the appropriate transitions between light and dark occurred. The line scan camera was calibrated with a stage micrometer scaled in 10 μm divisions. The signals from the camera were directed to a Hewlett Packard computer (Model Vectra RS/20C). […]

[1] = tested on: myocardial membrane adenylyl cyclase; assay: Adenylyl cyclase activity of crude ventricular myocardial membranes; type: biochemical, rat; details: homogenate of the rat heart ventricular myocardium; only at 1 MM CGS-21680
Description: Crude ventricular myocardial membranes were prepared according to the following procedure. Isolated rat hearts were perfused with 5 ml of ice cold saline (0.9% NaCl) to wash out the blood, minced into 2-3 mm^3 cubes, and placed in 10 ml of homogenization buffer (HB) containing 10 mM HEPES (pH 7.4), 1 mM ethylenediamine-tetraacetic acid (EDTA), 1 mM DTT and 10 μg/ml soybean trypsin inhibitor. The suspension was homogenized with a PT-10 PolytronTM generator at a speed of 6 for two 15-second periods separated by 15 seconds. The homogenized material was also treated with 2 strokes of a glass/teflon motor driven Potter-Elvehjen homogenizer operated at 1/2 full speed. Upon addition of 4.7 ml of HB containing 1.25M sucrose the homogenate was mixed and centrifugated at 1,000 x g for 15 minutes. The supernatant was filtered through 4 layers of cheesecloth and 14.5 ml HB was added. […] Membranes were assayed immediately for adenylyl cyclase activity. […] The formed [α-^32 […] separated from the [α-^32 P]dATP by sequential chromatography using columns of cation exchange resin AG 50W-X4 (200-400 mesh) and neutral alumnia AG 7 (100-200 mesh) after the methods of Salomon (Adv. Cyclic Nucleotide Res. 10:35 (1979). All results were corrected for column recovery of [^3 […] ranged between 60 and 90%. The activity of the adenylyl cyclase is expressed as pmol [α-^32 […] formed/min/mg protein.

[2] = ISO at 0.1 μM in the presence of 1 μM PIA
[3] = Rattus norvegicus, Ventricular myocyte, read-out: increase in +dL/dtmax
[4] = Rattus norvegicus, Ventricular myocyte, read-out: increase in LC
[5] = Table 2, 0.2 μM ISO, 2 μM PIA, 0.2 μM DPCPX added sequentially every 8-10 min, maximum responses, N = 6
[6] = Rattus norvegicus, Ventricular myocyte, read-out: increase in TPS
[7] = Rattus norvegicus, Ventricular myocyte, read-out: increase in TR
[8] = Table 4, CGS-21680 10^-4 M, cumulative dose-response, every 10 min, N = 6
[9] = Table 4, CGS-21680 10^-5 M, cumulative dose-response, every 10 min, N = 6
[10] = Table 4, CGS-21680 10^-6 M, cumulative dose-response, every 10 min, N = 9
[11] = Table 4, CGS-21680 10^-7 M, cumulative dose-response, every 10 min, N = 9
[12] = Table 4, CGS-21680 10^-8 M, cumulative dose-response, every 10 min, N = 8
[13] = Table 5, CGS-21680 and/or CGS-15943 at 10^-5 M, 10 min, N = 6

CC(C)NCC(O)c1ccc(O)c(O)c1 (centres unmarked) [ISO, isoproterenol]
decrease in TR (rat ventricular myocytes; [2]): 10%
increase in +dL/dtmax (rat ventricular myocytes; [2]): 70%
increase in -dL/dtmax (rat ventricular myocytes; [2]): 93%
increase in LC (rat ventricular myocytes; [2]): 44%
inhibition at 0.2 µM (rat ventricular myocytes; Rattus norvegicus, Ventricular myocyte, read-out: decrease in DS): 30%
inhibition at 0.2 µM (rat ventricular myocytes; Rattus norvegicus, Ventricular myocyte, read-out: decrease in TPS): 14%
inhibition at 0.2 µM (rat ventricular myocytes; Rattus norvegicus, Ventricular myocyte, read-out: decrease in TR): 39%
activation at 0.2 µM (rat ventricular myocytes; [3]): 63%
activation at 0.2 µM (rat ventricular myocytes; Rattus norvegicus, Ventricular myocyte, read-out: increase in -dL/dtmax): 100%
activation at 0.2 µM (rat ventricular myocytes; [4]): 61%
+dL/dtmax, maximal rate of shortening (rat ventricular myocytes; [5]): 260 ± 13 μm/msec
-dL/dtmax, maximal rate of relaxation (rat ventricular myocytes; [5]): 180 ± 17 μm/msec
DS, duration of shortening (rat ventricular myocytes; [5]): 263 ± 16 ms
LC, maximum length change (shortening) with contraction (rat ventricular myocytes; [5]): 29 ± 2 μm
TPS, time-to-peak shortening (rat ventricular myocytes; [5]): 103 ± 4 ms
TR, time to 75% relaxation (rat ventricular myocytes; [5]): 210 ± 8 ms

CCNC(=O)[C@H]1O[C@@H](n2cnc3c(N)nc(NCCc4ccc(CCC(=O)O)cc4)nc32)[C@H](O)[C@@H]1O [CGS-21680, 2-p-(2-carboxy-ethyl)phenethyl-amino-5'-N-ethylcarboxamido-adenosine]
effect on -dL/dtmax (rat ventricular myocytes; CGS-21680, Table 4 concentrations): did not affect
contractility variables compared to 1 μM CGS-21680 in the absence of DPCPX (rat ventricular myocytes; CGS-21680 at 1 μM in the presence of 0.2 μM DPCPX): no further increases
EC50 (rat ventricular myocytes; Rattus norvegicus, Ventricular myocyte, read-out: EC50 for +dL/dtmax): 13.2 ± 5.6 nM
EC50 (rat ventricular myocytes; Rattus norvegicus, Ventricular myocyte, read-out: EC50 for DS): 26 ± 5.4 nM
EC50 (rat ventricular myocytes; Rattus norvegicus, Ventricular myocyte, read-out: EC50 for LC): 6.1 ± 2 nM
EC50 (rat ventricular myocytes; Rattus norvegicus, Ventricular myocyte, read-out: EC50 for TPS): 48.2 ± 6.7 nM
EC50 (rat ventricular myocytes; Rattus norvegicus, Ventricular myocyte, read-out: EC50 for TR): 28.9 ± 8.7 nM
activation at 0.1 µM (rat ventricular myocytes; [3]): 27%
activation at 0.1 µM (rat ventricular myocytes; Rattus norvegicus, Ventricular myocyte, read-out: increase in DS): 32%
activation at 0.1 µM (rat ventricular myocytes; [4]): 28%
activation at 0.01 µM (rat ventricular myocytes; [6]): 11%
activation at 0.1 µM (rat ventricular myocytes; [6]): 30%
activation at 0.01 µM (rat ventricular myocytes; [7]): 12%
activation at 0.1 µM (rat ventricular myocytes; [7]): 22%
+dL/dtmax, maximal rate of shortening (rat ventricular myocytes; [8]): 158 ± 14 μm/msec
-dL/dtmax, maximal rate of relaxation (rat ventricular myocytes; [8]): 108 ± 16 μm/msec
DS, duration of shortening (rat ventricular myocytes; [8]): 404 ± 17 ms
LC, maximum length change (shortening) with contraction (rat ventricular myocytes; [8]): 22 ± 2 μm
TPS, time-to-peak shortening (rat ventricular myocytes; [8]): 156 ± 3 ms
TR, time to 75% relaxation (rat ventricular myocytes; [8]): 322 ± 12 ms
+dL/dtmax, maximal rate of shortening (rat ventricular myocytes; [9]): 187 ± 13 μm/msec
-dL/dtmax, maximal rate of relaxation (rat ventricular myocytes; [9]): 127 ± 13 μm/msec
DS, duration of shortening (rat ventricular myocytes; [9]): 460 ± 18 ms
LC, maximum length change (shortening) with contraction (rat ventricular myocytes; [9]): 26 ± 3 μm
TPS, time-to-peak shortening (rat ventricular myocytes; [9]): 192 ± 4 ms
TR, time to 75% relaxation (rat ventricular myocytes; [9]): 397 ± 14 ms
+dL/dtmax, maximal rate of shortening (rat ventricular myocytes; [10]): 188 ± 11 μm/msec
-dL/dtmax, maximal rate of relaxation (rat ventricular myocytes; [10]): 121 ± 15 μm/msec
DS, duration of shortening (rat ventricular myocytes; [10]): 458 ± 12 ms
LC, maximum length change (shortening) with contraction (rat ventricular myocytes; [10]): 24 ± 2 μm
TPS, time-to-peak shortening (rat ventricular myocytes; [10]): 183 ± 5 ms
TR, time to 75% relaxation (rat ventricular myocytes; [10]): 390 ± 13 ms
+dL/dtmax, maximal rate of shortening (rat ventricular myocytes; [11]): 183 ± 14 μm/msec
-dL/dtmax, maximal rate of relaxation (rat ventricular myocytes; [11]): 126 ± 12 μm/msec
DS, duration of shortening (rat ventricular myocytes; [11]): 431 ± 14 ms
LC, maximum length change (shortening) with contraction (rat ventricular myocytes; [11]): 23 ± 2 μm
TPS, time-to-peak shortening (rat ventricular myocytes; [11]): 169 ± 3 ms
TR, time to 75% relaxation (rat ventricular myocytes; [11]): 361 ± 12 ms
+dL/dtmax, maximal rate of shortening (rat ventricular myocytes; [12]): 162 ± 13 μm/msec
-dL/dtmax, maximal rate of relaxation (rat ventricular myocytes; [12]): 125 ± 11 μm/msec
DS, duration of shortening (rat ventricular myocytes; [12]): 363 ± 15 ms
LC, maximum length change (shortening) with contraction (rat ventricular myocytes; [12]): 22 ± 2 μm
TPS, time-to-peak shortening (rat ventricular myocytes; [12]): 144 ± 4 ms
TR, time to 75% relaxation (rat ventricular myocytes; [12]): 334 ± 10 ms
+dL/dtmax, maximal rate of shortening (rat ventricular myocytes; [13]): 192 ± 11 μm/msec
-dL/dtmax, maximal rate of relaxation (rat ventricular myocytes; [13]): 122 ± 12 μm/msec
DS, duration of shortening (rat ventricular myocytes; [13]): 486 ± 15 ms
LC, maximum length change (shortening) with contraction (rat ventricular myocytes; [13]): 25 ± 2 μm
TPS, time-to-peak shortening (rat ventricular myocytes; [13]): 190 ± 4 ms
TR, time to 75% relaxation (rat ventricular myocytes; [13]): 392 ± 13 ms
EC50 (rat ventricular myocytes; read-out: EC50 for the contractile variables (length change, duration of shortening, time to peak shortening, time to 75% relaxation, +dL/dtmax), range over the five variables): 6 to 48 nM
adenylyl cyclase activity [1]: increased
